Peptide text beside a SMILES is read from it. * marks the point of attachment. Biotin = O=C1N[C@H]2[C@H](CS[C@H]2CCCCC(=O)*)N1
What was measured:
Caspase 9 = test: BLI: Caspase 9 analyte binding to immobilized PP2A (Protein A biosensor, anti-PP2A); design: species or system human; settings: summary: close to, Caspase 9 analyte on immobilized PP2A; read-out: affinity, both models
Protocol: Kinetic analysis was performed based on biolayer interferometry (BLI) by using a BLItz instrument (ForteBio, Bayonne, France) at room temperature. Prior to use, each biosensor was hydrated in sample diluent (SD: PBS1X, pH 7.0, 0.02% Tween 20, 0.1% BSA) for at least 10 min. Kinetic measurements of PP2A/Caspase 9 interactions were run with Protein A biosensors (Fortebio) and consisted of seven steps, all performed in reaction buffer, as follows: (i) initial baseline in 300 µL SD for 30 s was measured; (ii) 4 µL of mouse anti-Caspase 9 or rabbit anti-PP2A were immobilized on the sensor for 150 s at 133 nM; (iii) the immunosensor was washed with 300 µL SD for 120 s; (iv) 4 µL of purified ligand Caspase 9 at 566 nM (Origen) or PP2A at 694 nM (LSBio) were loaded on the immunosensor for 150 s; (v) the ligand-coated immunosensor was washed with 300 µL SD for 120 s; (vi) association of purified analytes diluted in SD at the mentioned concentrations was studied for 150 s in 4 µL; and (vii) dissociation step was then monitored in 300 µL SD for 120 s.
Experiments using empty immunosensors (no ligand loaded) were run as control. Sensorgrams were fit globally to a 1:1 binding model by BLItz Pro software, from which the association (kon) and dissociation (koff) rate constants and apparent affinities (KD) were calculated. […]

PP2A [1] = biological target: T1, PP2A (Homo sapiens, UniProt P67775); test: ELISA: PP2A binding to immobilized biotinylated C9h peptides; settings: OD 450 nm
T1 construct: purchased LSBio
Protocol: A total of 100 μL of biotinylated peptides diluted at 100 μM in PBS was incubated for 2 h at room temperature in a 96-well Streptavidine-coated plate (Pierce, Illkirch, Strasbourg, France). Wells were washed five times with PBS/0.05% Tween-20 (PBST) and filled with 100 μL of PP2A (Sigma) diluted in PBS/2.5% BSA (Sigma) at the indicated dilutions. The plate was incubated over night at 4 °C and washed five times with PBST. A total of 100 μL of rabbit polyclonal IgG anti-human PP2Aα (Santa Cruz Biotechnology, Heidelberg, Germany) was added at 5 μg/mL in PBS/BSA for 1 h at room temperature. Wells were washed 5 times with PBST and filled with 100 μL of HRP conjugated anti-rabbit IgG (Sigma) diluted at 1:20,000 in PBS/BSA for 1 h at room temperature. Wells were washed 5 times with PBST, and 100 μL of TMB substrate (Pierce) were added and incubated for 15–45 min. The reaction was stopped with 50 μL of 2 N sulphuric acid, and the absorbance was measured at 450 nm on a Multiskan EX plate reader (Thermo Scientific, Illkirch, Strasbourg, France). The Caspase 9 peptide C9h was labelled with biotin at the N-terminal and C-terminal end of the peptide.

PP2A [2] = biological target: T1, PP2A; test: BLI: PP2A binding to immobilized biotinylated C9h-Cter peptide (Streptavidin biosensor)
Protocol: Kinetic measurements of PP2A against biotinylated C9h-Cter peptide were run with Streptavidin biosensors (Fortebio, #18-5019). The initial step consisted of coating the biosensor with the peptide diluted in SD at 100 µM for 180 s in 4 µL (not shown) and was followed by three steps for the kinetic study: (i) initial baseline in 300 µL SD for 30 s was measured; (ii) association of PP2A at the indicated concentrations for 180 s in 4 µL was used; and (iii) dissociation step was then monitored in 300 µL SD for 150 s.
Experiments using empty immunosensors (no ligand loaded) were run as control. Sensorgrams were fit globally to a 1:1 binding model by BLItz Pro software, from which the association (kon) and dissociation (koff) rate constants and apparent affinities (KD) were calculated. X2 is the sum of squared deviations between the actual data point and the fitted curve. Values close to zero indicate a good curve fit. The R2 coefficient of determination is a statistical measure of how well the fitted curve approximate the real data points. Values of R2 near 1 indicate a near-perfect fit.

T1 sequence (P67775 whole entry): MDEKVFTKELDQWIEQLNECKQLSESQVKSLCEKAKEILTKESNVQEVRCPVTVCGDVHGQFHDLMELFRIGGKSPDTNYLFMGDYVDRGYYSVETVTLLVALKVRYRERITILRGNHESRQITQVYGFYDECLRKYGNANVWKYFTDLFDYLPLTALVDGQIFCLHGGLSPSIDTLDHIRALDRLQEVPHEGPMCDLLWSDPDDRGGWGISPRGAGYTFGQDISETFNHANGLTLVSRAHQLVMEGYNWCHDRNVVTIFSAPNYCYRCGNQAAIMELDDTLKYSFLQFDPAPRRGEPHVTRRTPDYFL

For “PP2A: protein phosphatase 2A (LSBio), serine/threonine phosphatase”, the Kd (Caspase 9) was roughly 100 nM.
With `CC[C@H](C)[C@H](NC(=O)[C@H](CC(=O)O)NC(=O)[C@H](CC(=O)O)NC(=O)[C@H](CC(C)C)NC(=O)[C@@H](NC(=O)[C@H](CCC(=O)O)NC(=O)[C@@H](NC(=O)[C@@H](N)Cc1ccc(O)cc1)C(C)C)[C@@H](C)O)C(=O)N[C@@H](Cc1ccccc1)C(=O)N[C@@H](CCC(=O)O)C(=O)N[C@@H](CCC(N)=O)C(=O)N[C@@H](Cc1c[nH]c2ccccc12)C(=O)N[C@@H](C)C(=O)N[C@@H](Cc1c[nH]cn1)C(=O)N[C@@H](CO)C(=O)N[C@@H](CCC(=O)O)C(=O)N[C@@H](CC(=O)O)C(=O)N[C@@H](CC(C)C)C(=O)N[C@@H](CCCCNC(=O)CCCC[C@@H]1SC[C@@H]2NC(=O)N[C@@H]21)C(=O)O` [C9h-Cter] (H-YVETLDDIFEQWAHSEDLK(Biotin)-OH; N-terminus and C-terminus assumed) the “signal recognition compared with C9h-Nter” value (PP2A [1]; PP2A 0.6 μg/mL, duplicate wells) was “stronger signal recognition than that of C9h-Nter”, the “binding of PP2A to biotinylated peptide” value (PP2A [1]; peptide 100 μM on streptavidin plate, PP2A 0.6 μg/mL overnight at 4 °C, mean of duplicate wells, representative of two independent experiments, irrelevant biotinylated peptide as negative control) was “bind to the PP2A protein in a specific manner” and the koff (PP2A [2]; biotinylated C9h-Cter coated at 100 µM, analyte PP2A 463, 556 and 694 nM, pH 7.0, room temperature, dissociation 150 s, global 1:1 fit) was 0.0087 s⁻¹. For the same compound, the “dissociation rate of PP2A relative to that with immobilized Caspase 9” value (PP2A [2]; immobilized C9h-Cter versus immobilized Caspase 9) was “approximatively one log higher” and the “affinity for PP2A compared with whole protein Caspase 9” value (PP2A [2]; qualitative comparison) was “slightly lower affinity”.

Reference: publication PMC9609871, “Binding and Kinetic Analysis of Human Protein Phosphatase PP2A Interactions with Caspase 9 Protein and the Interfering Peptide C9h” (Pharmaceutics, 2022)
